# System: 855422-203-R-J1-PDC complex spheroid growth
# Assay: Anticancer human tumor 855422-203-R-J1-PDC patient-derived bladder carcinoma cell line growth inhibition [AhR]
# Conditions: for IC50: curve of first compound; for viability, T/C: stronger effect = lower value
# Method in brief: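 Agents were dosed in half-log steps down from roughly clinical Cmax, or from 10 microM where Cmax was unknown, alone and with AhR antagonists. Read-out: percent test/control growth of tumor spheroids containing HUVEC and MSC stromal cells.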
# [1] = second compound 0.1 µM, first compound 0.0316 µM
# [2] = second compound 0.1 µM, first compound 0.1 µM
# [3] = second compound 0.1 µM, first compound 0.316 µM
# [4] = second compound 0.1 µM, first compound 1 µM
# [5] = second compound 0.1 µM, first compound 3.16 µM
# [6] = second compound 0.1 µM, first compound 10 µM
# [7] = second compound 0.316 µM, first compound 0.0316 µM
# [8] = second compound 0.316 µM, first compound 0.1 µM
# [9] = second compound 0.316 µM, first compound 0.316 µM
# [10] = second compound 0.316 µM, first compound 1 µM
# [11] = second compound 0.316 µM, first compound 3.16 µM
# [12] = second compound 0.316 µM, first compound 10 µM
# [13] = second compound 1 µM, first compound 0.0316 µM
# [14] = second compound 1 µM, first compound 0.1 µM
# [15] = second compound 1 µM, first compound 0.316 µM
# [16] = second compound 1 µM, first compound 1 µM
# [17] = second compound 1 µM, first compound 3.16 µM
# [18] = second compound 1 µM, first compound 10 µM
# [19] = second compound 3.16 µM, first compound 0.0316 µM
# [20] = second compound 3.16 µM, first compound 0.1 µM
# [21] = second compound 3.16 µM, first compound 0.316 µM
# [22] = second compound 3.16 µM, first compound 1 µM
# [23] = second compound 3.16 µM, first compound 3.16 µM
# [24] = second compound 3.16 µM, first compound 10 µM
# [25] = second compound 10 µM, first compound 0.0316 µM
# [26] = second compound 10 µM, first compound 0.1 µM
# [27] = second compound 10 µM, first compound 0.316 µM
# [28] = second compound 10 µM, first compound 1 µM
# [29] = second compound 10 µM, first compound 3.16 µM
# [30] = second compound 10 µM, first compound 10 µM
# 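Also: spheroids exposed to agents for seven days before readout.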
# 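For viability, T/C in this document: percent of DMSO vehicle control luminescence viability.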
Compound,IC50 (second compound 0.1 µM) [µM],IC50 (second compound 0.316 µM) [µM],IC50 (second compound 1 µM) [µM],IC50 (second compound 3.16 µM) [µM],IC50 (second compound 10 µM) [µM],"viability, T/C [1] [%]","viability, T/C [2] [%]","viability, T/C [3] [%]","viability, T/C [4] [%]","viability, T/C [5] [%]","viability, T/C [6] [%]","viability, T/C [7] [%]","viability, T/C [8] [%]","viability, T/C [9] [%]","viability, T/C [13] [%]","viability, T/C [14] [%]","viability, T/C [19] [%]","viability, T/C [20] [%]","viability, T/C [25] [%]","viability, T/C [26] [%]",other results
COc1cc(Nc2ncc3c(n2)-c2ccc(Cl)cc2C(c2c(F)cccc2OC)=NC3)ccc1C(=O)O + CC(CO)NC(=O)c1cc(-c2ccc(Cl)cc2)nn(-c2cnn(C)c2)c1=O,> 10,10,> 10,> 10,> 10,97,93.6,66,57.6,52.2,46.1,87.1,107,66.2,93.5,104,88.9,90.6,94.7,79.9,"viability, T/C [10]: 55.2%; viability, T/C [11]: 48%; viability, T/C [12]: 48.1%; viability, T/C [15]: 66.2%; viability, T/C [16]: 61%; viability, T/C [17]: 48.1%; viability, T/C [18]: 45.9%; viability, T/C [21]: 60.2%; viability, T/C [22]: 58.5%; viability, T/C [23]: 46.4%; viability, T/C [24]: 47.2%; viability, T/C [27]: 60.8%; viability, T/C [28]: 50.6%; viability, T/C [29]: 55.5%; viability, T/C [30]: 46.3%"
Cn1ncnc1C1c2n[nH]c(=O)c3cc(F)cc(c23)NC1c1ccc(F)cc1 (stereo not given) + CC(CO)NC(=O)c1cc(-c2ccc(Cl)cc2)nn(-c2cnn(C)c2)c1=O,> 0.1,> 0.1,> 0.1,> 0.1,> 0.1,105,84.9,–,–,–,–,100,89.3,–,99,107,105,110,106,94,"viability, T/C (second compound 0.1 µM, first compound 0.000316 µM): 93.4%; viability, T/C (second compound 0.1 µM, first compound 0.001 µM): 96.2%; viability, T/C (second compound 0.1 µM, first compound 0.00316 µM): 99.3%; viability, T/C (second compound 0.1 µM, first compound 0.01 µM): 92.4%; viability, T/C (second compound 0.316 µM, first compound 0.000316 µM): 96.4%; viability, T/C (second compound 0.316 µM, first compound 0.001 µM): 104%; viability, T/C (second compound 0.316 µM, first compound 0.00316 µM): 98.6%; viability, T/C (second compound 0.316 µM, first compound 0.01 µM): 107%; viability, T/C (second compound 1 µM, first compound 0.000316 µM): 109%; viability, T/C (second compound 1 µM, first compound 0.001 µM): 105%; viability, T/C (second compound 1 µM, first compound 0.00316 µM): 96.2%; viability, T/C (second compound 1 µM, first compound 0.01 µM): 109%; viability, T/C (second compound 3.16 µM, first compound 0.000316 µM): 101%; viability, T/C (second compound 3.16 µM, first compound 0.001 µM): 107%; viability, T/C (second compound 3.16 µM, first compound 0.00316 µM): 102%; viability, T/C (second compound 3.16 µM, first compound 0.01 µM): 103%; viability, T/C (second compound 10 µM, first compound 0.000316 µM): 105%; viability, T/C (second compound 10 µM, first compound 0.001 µM): 102%; viability, T/C (second compound 10 µM, first compound 0.00316 µM): 95.4%; viability, T/C (second compound 10 µM, first compound 0.01 µM): 103%"
NS(=O)(=O)OCC1CC(n2ccc3c(NC4CCc5ccccc54)ncnc32)CC1O (stereo not given) + CC(CO)NC(=O)c1cc(-c2ccc(Cl)cc2)nn(-c2cnn(C)c2)c1=O,0.855,0.795,0.699,0.524,0.47,99.8,117,93,43.2,15.3,10.1,90.5,109,84.4,104,102,87,97.9,87.6,82.8,"viability, T/C [10]: 41.5%; viability, T/C [11]: 12.4%; viability, T/C [12]: 7.98%; viability, T/C [15]: 85.4%; viability, T/C [16]: 34.1%; viability, T/C [17]: 11.4%; viability, T/C [18]: 9.77%; viability, T/C [21]: 61.9%; viability, T/C [22]: 31.9%; viability, T/C [23]: 9.85%; viability, T/C [24]: 8.37%; viability, T/C [27]: 53.5%; viability, T/C [28]: 38.6%; viability, T/C [29]: 11.7%; viability, T/C [30]: 8.14%"
O=C(C=Cc1cccc(S(=O)(=O)Nc2ccccc2)c1)NO + CC(CO)NC(=O)c1cc(-c2ccc(Cl)cc2)nn(-c2cnn(C)c2)c1=O,2.15,1.97,2.03,1.54,1.73,87.4,88.6,91.1,71.7,38.5,1.42,89.1,88.2,92.7,93.7,87.8,83.2,86.8,87.2,90.3,"viability, T/C [10]: 70.6%; viability, T/C [11]: 34.7%; viability, T/C [12]: 0.82%; viability, T/C [15]: 86.6%; viability, T/C [16]: 79.8%; viability, T/C [17]: 31.7%; viability, T/C [18]: 0.88%; viability, T/C [21]: 90.7%; viability, T/C [22]: 60.3%; viability, T/C [23]: 27.9%; viability, T/C [24]: 0.71%; viability, T/C [27]: 79.4%; viability, T/C [28]: 67.3%; viability, T/C [29]: 31.8%; viability, T/C [30]: 0.94%"
